According to US20250115669A1, “FGFR1/KLB Targeting Agonistic Antigen-Binding Proteins and Conjugates Thereof with GLP-1R Agonistic Peptides” (SANOFI, priority 2020, published 2025):
Bridge positions count the residues as written; N and C are the ends. Ends that are not written are not given here. Peptide text beside a SMILES is read from it.

Tests used:
human GIP receptor = biological target: T1, human GIP receptor (Homo sapiens, UniProt P48546); experiment: HTRF cAMP assay in HEK-293 cells expressing human GIP receptor; format: cell-based; conditions: HEK-293 cells; read-out: HTRF cAMP EC50 Human GIPR
T1 construct: expressed in transfected cells; host or cells: PSC-HEK-293
T1 sequence (P48546 22-466): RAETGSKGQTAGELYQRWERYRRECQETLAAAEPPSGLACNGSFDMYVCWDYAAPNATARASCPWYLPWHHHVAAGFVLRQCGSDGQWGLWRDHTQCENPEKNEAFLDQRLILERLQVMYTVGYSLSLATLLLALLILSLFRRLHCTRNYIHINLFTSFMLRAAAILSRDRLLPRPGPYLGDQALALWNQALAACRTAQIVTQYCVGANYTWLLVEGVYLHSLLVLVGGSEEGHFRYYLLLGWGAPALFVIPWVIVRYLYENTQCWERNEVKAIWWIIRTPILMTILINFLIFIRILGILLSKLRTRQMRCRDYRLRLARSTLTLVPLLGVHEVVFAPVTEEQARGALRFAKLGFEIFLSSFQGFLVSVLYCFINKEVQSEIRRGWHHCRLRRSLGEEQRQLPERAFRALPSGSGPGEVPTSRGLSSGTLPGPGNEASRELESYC
Protocol: (§1) Each vial contained 1.8 ml cells. The vials were slowly frozen to −80° C. in isopropanol, and then transferred in liquid nitrogen for storage.
(§2) Cells were resuspended in assay buffer (cell buffer plus 2 mM IBMX) and adjusted to a cell density of 1 million cells/ml.
(§3) For measurement of cAMP generation, 5 μl cells (final 5000 cells/well) and 5 μl of test compound were added to a 384-well plate, followed by incubation for 30 min at room temperature.
(§4) The cAMP generated was determined using a kit from Cisbio Corp. based on HTRF (Homogenous Time Resolved Fluorescence). The cAMP assay was performed according to manufacturer's instructions (Cisbio).

[1] = biological target: T2, human glucagon (GCG) receptor (Homo sapiens, UniProt P47871); experiment: HTRF cAMP assay in HEK-293 cells expressing human glucagon receptor; format: cell-based; conditions: HEK-293 cells; read-out: HTRF cAMP EC50 Human GCGR
T2 construct: expressed in transfected cells; host or cells: PSC-HEK-293
T2 sequence (P47871 26-477): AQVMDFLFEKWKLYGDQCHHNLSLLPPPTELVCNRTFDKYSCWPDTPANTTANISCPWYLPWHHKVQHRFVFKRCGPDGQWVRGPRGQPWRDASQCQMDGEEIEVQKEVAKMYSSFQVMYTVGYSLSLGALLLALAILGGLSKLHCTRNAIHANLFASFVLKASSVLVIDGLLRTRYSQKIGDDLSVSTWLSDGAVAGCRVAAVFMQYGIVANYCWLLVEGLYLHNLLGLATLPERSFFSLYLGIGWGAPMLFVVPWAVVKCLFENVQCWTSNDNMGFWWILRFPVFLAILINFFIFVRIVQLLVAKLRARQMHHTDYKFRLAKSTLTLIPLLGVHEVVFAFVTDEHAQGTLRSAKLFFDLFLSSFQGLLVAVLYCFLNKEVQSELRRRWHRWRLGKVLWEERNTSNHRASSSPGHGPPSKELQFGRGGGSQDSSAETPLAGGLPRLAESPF
Protocol: as §1, §2, §3, §4

Compound	EC50 (human GIP receptor)	EC50 [1]
CC[C@H](C)[C@H](NC(=O)[C@H](CC(C)C)NC(=O)[C@H](Cc1c[nH]c2ccccc12)NC(=O)[C@H](CCC(=O)O)NC(=O)[C@@H](NC(=O)[C@H](Cc1ccccc1)NC(=O)[C@H](CCC(=O)O)NC(=O)[C@H](Cc1c[nH]cn1)NC(=O)[C@H](CCC(N)=O)NC(=O)[C@H](C)NC(=O)[C@H](CCCNC(=N)N)NC(=O)[C@H](CCCCN)NC(=O)[C@H](CCC(=O)O)NC(=O)[C@H](CC(C)C)NC(=O)[C@H](CC(C)C)NC(=O)[C@H](CCCCN)NC(=O)[C@H](CO)NC(=O)[C@H](CC(C)C)NC(=O)[C@H](CC(=O)O)NC(=O)[C@H](CO)NC(=O)[C@@H](NC(=O)[C@H](Cc1ccccc1)NC(=O)[C@@H](NC(=O)CNC(=O)[C@H](CCC(=O)O)NC(=O)CNC(=O)[C@@H](N)Cc1c[nH]cn1)[C@@H](C)O)[C@@H](C)O)[C@@H](C)CC)C(=O)N[C@@H](C)C(=O)NCC(=O)NCC(=O)N1CCC[C@H]1C(=O)N[C@@H](CO)C(=O)N[C@@H](CO)C(=O)NCC(=O)N[C@@H](CCCCN)C(=O)N1CCC[C@H]1C(=O)N1CCC[C@H]1C(=O)N1CCC[C@H]1C(=O)N[C@@H](CCCCN)C(N)=O [Ab P028] (H-HGEGTFTSDLSKLLEKRAQHEFIEWLIAGGPSSGKPPPK-NH2; N-terminus assumed)	0.39 nM	> 10 nM
CC[C@H](C)[C@H](NC(=O)[C@H](CC(C)C)NC(=O)[C@H](Cc1c[nH]c2ccccc12)NC(=O)[C@H](CCC(=O)O)NC(=O)[C@@H](NC(=O)[C@H](Cc1ccccc1)NC(=O)[C@H](CCC(=O)O)NC(=O)[C@H](Cc1c[nH]cn1)NC(=O)[C@H](CCC(N)=O)NC(=O)[C@H](C)NC(=O)[C@H](CCCNC(=N)N)NC(=O)[C@H](CCCCN)NC(=O)[C@H](CCC(=O)O)NC(=O)[C@H](CC(C)C)NC(=O)[C@H](CC(C)C)NC(=O)[C@H](CCC(=O)O)NC(=O)[C@H](CO)NC(=O)[C@H](CC(C)C)NC(=O)[C@H](CC(=O)O)NC(=O)[C@H](CO)NC(=O)[C@@H](NC(=O)[C@H](Cc1ccccc1)NC(=O)[C@@H](NC(=O)CNC(=O)[C@H](CCC(=O)O)NC(=O)CNC(=O)[C@@H](N)Cc1c[nH]cn1)[C@@H](C)O)[C@@H](C)O)[C@@H](C)CC)C(=O)N[C@@H](C)C(=O)NCC(=O)NCC(=O)N1CCC[C@H]1C(=O)N[C@@H](CO)C(=O)N[C@@H](CO)C(=O)NCC(=O)N[C@@H](CCCCN)C(=O)N1CCC[C@H]1C(=O)N1CCC[C@H]1C(=O)N1CCC[C@H]1C(=O)N[C@@H](CCCCN)C(N)=O [Ab P031] (H-HGEGTFTSDLSELLEKRAQHEFIEWLIAGGPSSGKPPPK-NH2; N-terminus assumed)	0.271 nM	> 10 nM
HGEGTFTSDLSILCEKRAVHEFIEWLKAGGPSSGKPPPKPGC-NH2 (disulfide 14-42) [Ab P034]	0.257 nM	> 10 nM
HGEGTFTSDLSILCEKRAVHEFIEWLIAGGPSSGKPPPKPGC-NH2 (disulfide 14-42) [Ab P033]	0.024 nM	> 10 nM
CC[C@H](C)[C@H](NC(=O)[C@H](Cc1ccccc1)NC(=O)[C@H](CCC(=O)O)NC(=O)[C@H](Cc1c[nH]cn1)NC(=O)[C@H](CCC(N)=O)NC(=O)[C@H](C)NC(=O)[C@H](CCCNC(=N)N)NC(=O)[C@H](CCCCN)NC(=O)[C@H](CCC(=O)O)NC(=O)[C@H](CC(C)C)NC(=O)[C@H](CC(C)C)NC(=O)[C@H](CCCCN)NC(=O)[C@H](CO)NC(=O)[C@H](CC(C)C)NC(=O)[C@H](CC(=O)O)NC(=O)[C@H](CO)NC(=O)[C@@H](NC(=O)[C@H](Cc1ccccc1)NC(=O)[C@@H](NC(=O)CNC(=O)[C@H](CCC(=O)O)NC(=O)CNC(=O)[C@@H](N)Cc1c[nH]cn1)[C@@H](C)O)[C@@H](C)O)C(=O)N[C@@H](CCC(=O)O)C(=O)N[C@@H](Cc1c[nH]c2ccccc12)C(=O)N[C@@H](CC(C)C)C(=O)N[C@@H](CCCCN)C(=O)N[C@@H](C)C(=O)NCC(=O)NCC(=O)N1CCC[C@H]1C(=O)N[C@@H](CO)C(=O)N[C@@H](CO)C(=O)NCC(=O)N[C@@H](CCCCN)C(=O)N1CCC[C@H]1C(=O)N1CCC[C@H]1C(=O)N1CCC[C@H]1C(=O)N[C@@H](CCCCN)C(N)=O [Ab P030] (H-HGEGTFTSDLSKLLEKRAQHEFIEWLKAGGPSSGKPPPK-NH2; N-terminus assumed)	2.76 nM	> 10 nM
CC[C@H](C)[C@H](NC(=O)[C@H](CC(C)C)NC(=O)[C@H](Cc1c[nH]c2ccccc12)NC(=O)[C@H](CCC(=O)O)NC(=O)[C@@H](NC(=O)[C@H](Cc1ccccc1)NC(=O)[C@H](CCC(=O)O)NC(=O)[C@H](Cc1c[nH]cn1)NC(=O)[C@@H](NC(=O)[C@H](C)NC(=O)[C@H](CCCNC(=N)N)NC(=O)[C@H](CCCCN)NC(=O)[C@H](CCC(=O)O)NC(=O)[C@H](CC(C)C)NC(=O)[C@H](CC(C)C)NC(=O)[C@H](CCCCN)NC(=O)[C@H](CO)NC(=O)[C@H](CC(C)C)NC(=O)[C@H](CC(=O)O)NC(=O)[C@H](CO)NC(=O)[C@@H](NC(=O)[C@H](Cc1ccccc1)NC(=O)[C@@H](NC(=O)CNC(=O)[C@H](CCC(=O)O)NC(=O)CNC(=O)[C@@H](N)Cc1c[nH]cn1)[C@@H](C)O)[C@@H](C)O)C(C)C)[C@@H](C)CC)C(=O)N[C@@H](C)C(=O)NCC(=O)NCC(=O)N1CCC[C@H]1C(=O)N[C@@H](CO)C(=O)N[C@@H](CO)C(=O)NCC(=O)N[C@@H](CCCCN)C(=O)N1CCC[C@H]1C(=O)N1CCC[C@H]1C(=O)N1CCC[C@H]1C(=O)N[C@@H](CCCCN)C(N)=O [Ab P027] (H-HGEGTFTSDLSKLLEKRAVHEFIEWLIAGGPSSGKPPPK-NH2; N-terminus assumed)	0.225 nM	> 10 nM
CC[C@H](C)[C@H](NC(=O)[C@H](Cc1ccccc1)NC(=O)[C@H](CCC(=O)O)NC(=O)[C@H](Cc1c[nH]cn1)NC(=O)[C@@H](NC(=O)[C@H](C)NC(=O)[C@H](CCCNC(=N)N)NC(=O)[C@H](CCCCN)NC(=O)[C@H](CCC(=O)O)NC(=O)[C@H](CC(C)C)NC(=O)[C@H](CC(C)C)NC(=O)[C@H](CCCCN)NC(=O)[C@H](CO)NC(=O)[C@H](CC(C)C)NC(=O)[C@H](CC(=O)O)NC(=O)[C@H](CO)NC(=O)[C@@H](NC(=O)[C@H](Cc1ccccc1)NC(=O)[C@@H](NC(=O)CNC(=O)[C@H](CCC(=O)O)NC(=O)CNC(=O)[C@@H](N)Cc1c[nH]cn1)[C@@H](C)O)[C@@H](C)O)C(C)C)C(=O)N[C@@H](CCC(=O)O)C(=O)N[C@@H](Cc1c[nH]c2ccccc12)C(=O)N[C@@H](CC(C)C)C(=O)N[C@@H](CCCCN)C(=O)N[C@@H](C)C(=O)NCC(=O)NCC(=O)N1CCC[C@H]1C(=O)N[C@@H](CO)C(=O)N[C@@H](CO)C(=O)NCC(=O)N[C@@H](CCCCN)C(=O)N1CCC[C@H]1C(=O)N1CCC[C@H]1C(=O)N1CCC[C@H]1C(=O)N[C@@H](CCCCN)C(N)=O [Ab P029] (H-HGEGTFTSDLSKLLEKRAVHEFIEWLKAGGPSSGKPPPK-NH2; N-terminus assumed)	1.37 nM	> 10 nM
